Data as given in patent publication US11447465B2, “Pharmaceutical compounds for treatment of medical disorders” (Achillion Pharmaceuticals, Inc., priority 2017, dated 2022).

These compounds were tested against Human Factor D (Homo sapiens (Human), UniProt P00746) (assay: Human Factor D Assay). Conditions: Table 5; Human Factor D 80 nM, substrate Z-L-Lys-SBzl; read-out: IC50 (Stars).
Assay type: biochemical
Protocol: Human Factor D (purified from human serum, Complement Technology, Inc.) at 80 nM final concentration is incubated with test compound at various concentrations for 5 min at room temperature in 50 mM Tris, 1M NaCl, pH 7.5. A synthetic substrate Z-L-Lys-SBzl and DTNB (Ellman's reagent) are added to final concentrations of 100 μM each. Absorbance at 405 nm (A405) is recorded at 30 second intervals for 30 min using a microplate spectrophotometer. IC50 values are calculated by nonlinear regression of Complement Factor D reaction rates as a function of test compound concentration.

Chain of Human Factor D (P00746 26-253): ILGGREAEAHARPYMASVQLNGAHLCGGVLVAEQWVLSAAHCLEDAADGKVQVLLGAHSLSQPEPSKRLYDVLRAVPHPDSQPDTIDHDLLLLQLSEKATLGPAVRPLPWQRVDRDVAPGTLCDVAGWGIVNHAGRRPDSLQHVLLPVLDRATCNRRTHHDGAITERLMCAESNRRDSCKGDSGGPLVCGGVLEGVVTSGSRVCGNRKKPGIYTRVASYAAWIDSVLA

SMILES | IC50
CC(=O)c1nn(CC(=O)N2[C@H]3C[C@@]3(C)C[C@H]2C(=O)Nc2nc(Br)ccc2C)c2c(S(C)(=N)=O)cccc12 (stereo partly drawn) [Compound T-36, (1S,3S,5S)-2-(2-(3-acetyl-7-(S-methylsulfonimidoyl)-1H-indazol-1-yl)acetyl)-N-(6-bromo-3-methylpyridin-2-yl)-5-methyl-2-azabicyclo[3.1.0]hexane-3-carboxamide] | > 10000 nM
CC(=O)c1nn(CC(=O)N2C[C@H](F)C[C@H]2C(=O)Nc2cccc(Br)n2)c2c1CCCC2 [Compound T-37, (2S,4R)-1-(2-(3-acetyl-4,5,6,7-tetrahydro-1H-indazol-1-yl)acetyl)-N-(6-bromopyridin-2-yl)-4-fluoropyrrolidine-2-carboxamide] | 1000 to 10000 nM
CC(=O)c1nn(CC(=O)N2[C@H]3C[C@@]3(CN(C)C)C[C@H]2C(=O)NCc2cccc(Cl)c2F)c2cc(P(C)(=O)O)ccc12 [Compound T-38, (3-acetyl-1-(2-((1S,3S,5S)-3-((3-chloro-2-fluorobenzyl)carbamoyl)-5-((dimethylamino)methyl)-2-azabicyclo[3.1.0]hexan-2-yl)-2-oxoethyl)-1H-indazol-6-yl)(methyl)phosphinic acid] | 1000 to 10000 nM
CC(=O)c1nn(CC(=O)N2[C@H](C(=O)Nc3nc(Br)ccc3C)C[C@@]3(CN4C[C@H]5CCC[C@H]5C4)C[C@@H]23)c2c(C)cccc12 [Compound T-39, (1R,3S,5R)-2-(2-(3-acetyl-7-methyl-1H-indazol-1-yl)acetyl)-N-(6-bromo-3-methylpyridin-2-yl)-5-(((3aR,6aS)-hexahydrocyclopenta[c]pyrrol-2(1H)-yl)methyl)-2-azabicyclo[3.1.0]hexane-3-carboxamide] | < 1000 nM
CC(=O)c1nn(CC(=O)N2[C@H](C(=O)Nc3nc(Br)ccc3C)C[C@@]3(C)C[C@@H]23)c2c(S(C)=N)cccc12 (stereo partly drawn) [Compound T-40, (1R,3S,5R)-2-(2-(3-acetyl-7-(S-methylsulfinimidoyl)-1H-indazol-1-yl)acetyl)-N-(6-bromo-3-methylpyridin-2-yl)-5-methyl-2-azabicyclo[3.1.0]hexane-3-carboxamide] | < 1000 nM
CC(=O)c1nn(CC(=O)N2[C@H](C(=O)Nc3nc(Br)ccc3C)C[C@@]3(C)C[C@@H]23)c2c(S(C)(=N)=O)cccc12 (stereo partly drawn) [Compound T-41, (1R,3S,5R)-2-(2-(3-acetyl-7-(S-methylsulfonimidoyl)-1H-indazol-1-yl)acetyl)-N-(6-bromo-3-methylpyridin-2-yl)-5-methyl-2-azabicyclo[3.1.0]hexane-3-carboxamide] | < 1000 nM
CC(=O)c1nn(CC(=O)N2[C@H](C(=O)Nc3nc(Br)ccc3C)C[C@@]3(CN4CC5(CCCC5)C4)C[C@@H]23)c2c(C)cccc12 [Compound T-42, (1R,3S,5R)-5-(2-azaspiro[3,4]octan-2-ylmethyl)-2-(2-(3-acetyl-7-methyl-1H-indazol-1-yl)acetyl)-N-(6-bromo-3-methylpyridin-2-yl)-2-azabicyclo[3.1.0]hexane-3-carboxamide] | < 1000 nM
CC(=O)c1nn(CC(=O)N2[C@H](C(=O)Nc3nc(Br)ccc3C)C[C@@]3(CNC(=O)C4CCCC4(F)F)C[C@@H]23)c2c(C)cccc12 (stereo partly drawn) [Compound T-43, (1R,3S,5R)-2-(2-(3-acetyl-7-methyl-1H-indazol-1-yl)acetyl)-N-(6-bromo-3-methylpyridin-2-yl)-5-((2,2-difluorocyclopentane-1-carboxamido)methyl)-2-azabicyclo[3.1.0]hexane-3-carboxamide] | < 1000 nM
CC(=O)c1cn(CC(=O)N2[C@H](C(=O)NCc3cccc(Cl)c3F)C[C@@]3(CN4CCN(C)CC4)C[C@@H]23)c2cc(P(=O)(O)O)ccc12 [Compound T-44, (3-acetyl-1-(2-((1R,3S,5R)-3-((3-chloro-2-fluorobenzyl)carbamoyl)-5-((4-methylpiperazin-1-yl)methyl)-2-azabicyclo[3.1.0]hexan-2-yl)-2-oxoethyl)-1H-indol-6-yl)phosphonic acid] | < 1000 nM
